Laboratory results as given in patent US20140242600A1, “IMAGING THE HETEROGENEOUS UPTAKE OF RADIOLABELED MOLECULES IN SINGLE LIVING CELLS” (priority 2011, published 2014).

Columns and labels:
[1] = system: HeLa cells; assay: Radioluminescence microscopy of FDG uptake in HeLa cells on scintillator plate; type: cell-based; details: HeLa cells fasted 2 h, 400 μCi FDG 20 min 37° C., 20 minute exposure
Description: To visualize the uptake of radiotracer at the microscopic level, cells were cultured directly on a scintillating plate made of a material that converts incident beta radiation into optical photons via radioluminescence. In these experiments, scintillation plates were used with dimensions 10 mm×10 mm×0.5 mm that were made of CdWO4, a dense, high-Z, non-hygroscopic material, with both sides polished to allow for concurrent optical imaging (MTI Corp.). In one experiment, HeLa cells were seeded and cultured on the scintillating plate, immersed in cell culture medium (Dulbecco's Modified Eagle Medium containing 10% fetal calf serum) for 12-18 hours. After the cells had adhered to the surface of the scintillator plate and divided adequately, they were fasted for two hours in glucose-free cell medium and incubated for 20 minutes at 37° C. with 400 μCi of ^18F-fluorodeoxyglucose (FDG). […]
Radioluminescence images were taken with an EM gain of 251/1200, the excitation shutter closed, and the emission shutter open. […] Then, in luminescence mode, the image sharpness was optimized by varying the focal distance while acquiring 5 minute-exposure images. […]

[2] = system: MDA-MB-231 human breast cancer cells; assay: Single-cell FDG uptake at a fixed time-point, radioluminescence and fluorescence microscopy; type: cell-based; details: glucose-deprived 1 hour
Source text: In this illustration, the common radiotracer [^18F]fluorodeoxyglucose (FDG) was used. […] The radioluminescence microscopy set-up consisted of cells adhering to a 100 μm-thin CdWO4 scintillator plate that was immersed in a glass-bottom dish filled with cell culture medium as shown schematically in FIG. 2. The dish was imaged using an inverted microscope fitted with a high-NA objective and an electron-multiplying charge-coupled device (EM-CCD).
Brightfield images were acquired with no EM gain, a neutral-density filter on the excitation, and the emission shutter open. […] The brightfield mode was used to set the microscope into focus. […] For fluorescence microscopy, a 460 nm/535 nm filter set for 2-NBDG imaging (Chroma, D460/50x and D535/40m) and a 540 nm/600 nm filter set for RFP imaging (Chroma, HQ540/40x and HQ600/50m) were used.
One side of the scintillator plate was coated with fibronectin (10 μg/ml) to allow the cells to attach. After the plate had dried, the cells were seeded by placing a 50 μl drop containing 10^4 cells on to the fibronectin-coated plate.
After washing the cells, brightfield, radioluminescence and fluorescence micrographs were acquired.
To measure radiotracer uptake in single cells, circular regions of interest (ROI's; diameter, 24 μm) were manually placed on the cells using the brightfield micrograph. […] The same procedure was also applied to fluorescence micrographs.

[3] = system: breast cancer cells (MDA-MB-231); assay: Single-cell FDG uptake and efflux over time (pharmacokinetic study), serial radioluminescence imaging; type: cell-based, human
Description: To investigate the utility of radioluminescence microscopy for single-cell pharmacokinetic studies, FDG uptake, FDG efflux and FDG withdrawal conditions were analyzed. FDG uptake in breast cancer cells (MDA-MB-231) over time was monitored by depriving cells of glucose for 1 hour and then adding 5 μCi of FDG to the medium. Serial brightfield and radioluminescence images were acquired every 6 minutes for a period of 8 hours.
To monitor FDG efflux, breast cancer cells (MDA-MB-231) were subjected to conditions known to minimize FDG influx, i.e. thorough competition from glucose and withdrawal of FDG.
The influx of FDG into glucose-deprived cells was described using the following two-tissue compartmental kinetic model:
where Ca is the extracellular FDG concentration (assumed to be fixed); C(t) is the time-dependent intracellular FDG concentration (including free FDG and bound FDG-6-P); and K1, k2 and k3 are the rate constants representing influx, efflux, and irreversible phosphorylation of FDG, respectively. Fort>>1/(k2+k3, the intracellular and extracellular compartments are in equilibrium, and the intracellular concentration of FDG increases linearly with time due to irreversible trapping of FDG. The parameters of this linear rise (i.e. slope and intercept) are the Patlak coefficients. The slope of the linear rise is the product of two terms, namely K1 the influx rate, and k3/(k2+k3) is the fraction of the intracellular FDG irreversibly metabolized. A non-linear weighted least-squares fitting was used to estimate the parameters of the model. The fitting weights were adjusted to decrease the contribution of later time points, which have higher noise due to radioactive decay.
A mathematical model was also derived to represent FDG efflux from a cell. The model assumed that (1) following withdrawal of FDG, the concentration of FDG in the cell culture medium remained negligible due to the large extracellular volume (0.2 ml), and (2) k3>>k4. Under these assumptions, FDG concentration within a single cell can be described by the sum of a slow and a fast exponential decay.
Efflux of FDG from cells was modeled using a two-tissue compartmental model:
where a1 and a2 are positive coefficients that depend on the initial conditions, and λ1 and λ2 are the eigenvalues of the differential system of equations describing transport of FDG between compartments. The rate constant k4 which models the possible dephosphorylation of FDG-6-phosphate (FDG-6-P) was included in this model but assumed to be much smaller than k3. Furthermore, due to the large extracellular volume (0.2 ml), the concentration of FDG in the cell culture medium was assumed to remain negligible after withdrawal of FDG. Under these assumptions, the eigenvalues can be approximated as
These rate parameters were estimated by fitting the efflux model to the measured time-activity curves. For cells for which the solution of the fit yielded λ1≈λ2 or λ2<1 min^−1, the efflux curve was fitted with a single exponential function. In the special case of irreversible trapping (k4=0), the model is described by a single exponential decay with rate: λ1=k2+k3. The model was in agreement with radioluminescence measurements of single cells, confirming that two processes are occurring concurrently at different rates. Unbound FDG contained within the cell quickly diffuses out following concentration gradients, whereas FDG-6-phosphate (FDG-6-P) requires slow dephosphorylation to cross the cell membrane.

[4] = system: HeLa cells transduced with HSV1-ttk; assay: FHBG accumulation in HeLa cells transduced with mrfp1/HSV1-ttk reporter, radioluminescence and fluorescence microscopy; type: cell-based, human; details: 300 μCi 18F-FHBG 2 hours
Source text: To further exploit the microscope's ability to visualize both fluorescent and radioactive probe distributions, human cervical cancer cells (HeLa) were transduced with a dual fusion reporter vector, comprising reporter genes encoding the monomeric red fluorescent protein (mrfp1) and the mutant herpes simplex virus type 1 truncated thymidine kinase (HSV1-ttk). HSV1-ttk can selectively metabolize and trap radiolabeled substrates such as FHBG. Substrates such as 9-(4-[^18F]Fluoro-3hydroxymethylbutyl) guanine (^18F-FHBG) have low affinity for mammalian thymidine kinase (TK) enzymes but high affinity for HSV1-TK. FHBG is selectively metabolized and trapped within transduced cells so it can be used to image cell trafficking in living subjects with PET.
PCR amplification and standard cloning techniques were used to insert the mrfp and ttk genes from plasmid pCONA3.1-CMV-hrl-mrfp-ttk. Lentiviral EF1-gfp vectors were obtained and the gfp fragment was removed from the vector and replaced by mrfp-ttk. For PCR amplifications, different 5′ and 3′ end primers were used to generate the fusion vector (EF1-mrfp-ttk).
HeLa human cervical cancer and 293T human embryonic kidney cells were acquired and cultured in high-glucose Dulbecco's modified eagle medium supplemented with 10% fetal bovine serum. 293T cells were used to produce the lentivirus following standard procedures. HeLa cells were transduced with concentrated lentivirus for 48 hours and then trypsinized and seeded directly onto a scintillator plate coated with fibronectin (10 μg/ml), one day before imaging.
For imaging of cell transduction with FHBG and RFP, transduced HeLa cells were incubated for 2 hours with 300 μCi of ^18F-FHBG.
In transduced cells, accumulation of FHBG was coincident with expression of mrfp1 measured by fluorescence microscopy. A brightfield image (FIG. 5A), a radioluminescence image (FIG. 5B) and a fluorescence image (FIG. 5C) were obtained from the same field. It was seen that 88% of the cells visible on the brightfield image (217/245) were clearly distinguishable both on radioluminescence (FIG. 5B) and fluorescence images (FIG. 5C), while only 9% (21/245) could not be seen on either image. The remaining 7 cells were excluded from the analysis due to ambiguous radioluminescence intensity caused by the proximity to a strongly positive cell.

[5] = system: wild-type HeLa cells; assay: FHBG uptake in wild-type HeLa cells, radioluminescence microscopy; type: cell-based, human; details: FHBG 300 μCi, 2 h
Source text: Generally, radioluminescence signals for FHBG-positive and FHBG-negative cells were more distinctly separated than fluorescence signals for RFP-positive and RFP-negative cells.

[6] = system: mammalian thymidine kinase (TK) enzymes; details: background statement; cited from earlier work
[7] = system: HSV1-TK (Human herpesvirus 1); details: background statement; cited from earlier work
Chain of HSV1-TK (Human herpesvirus 1) (P0DTH5 whole entry): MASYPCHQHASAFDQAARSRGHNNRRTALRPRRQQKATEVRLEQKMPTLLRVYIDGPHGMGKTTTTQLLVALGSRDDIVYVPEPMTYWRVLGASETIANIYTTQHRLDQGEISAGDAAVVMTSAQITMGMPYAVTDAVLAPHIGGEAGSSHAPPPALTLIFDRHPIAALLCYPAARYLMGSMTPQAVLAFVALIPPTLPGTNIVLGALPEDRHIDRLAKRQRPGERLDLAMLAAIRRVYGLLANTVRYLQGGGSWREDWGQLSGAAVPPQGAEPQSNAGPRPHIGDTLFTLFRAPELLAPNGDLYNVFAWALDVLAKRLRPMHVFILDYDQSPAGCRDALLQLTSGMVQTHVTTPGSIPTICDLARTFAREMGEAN

| Compound | colocalization between cell outline (brightfield) and radioluminescence intensity [1] | cell-to-cell variation of radioluminescence intensity (FDG uptake) ([2]; FDG 400 μCi 1 hour 37° C.) | correlation (r) of FDG uptake with uptake of 2-NBDG in single cells ([2]; FDG 400 μCi + 2-NBDG 100 μM 1 hour 37° C., P<10^−5) | cell radioactivity after withdrawal of FDG from the media ([3]; cells previously incubated with FDG 400 μCi, 1 hour) | cell radioactivity after addition of glucose to the medium ([3]; glucose 25 mM added at 2 hours) | time at which the majority of cells stopped accumulating FDG ([3]; glucose-deprived 1 hour, 5 μCi FDG in medium) | time course of cell radioactivity (FDG uptake) ([3]; glucose-deprived 1 hour, 5 μCi FDG, images every 6 minutes for 8 hours) | variation of Patlak coefficients across cells ([3]; two-tissue compartmental kinetic model of FDG influx) | radiotracer uptake pattern in transduced cells ([4]; 100× magnification) | cells that could not be seen on either radioluminescence or fluorescence image ([4]; 21/245 cells) [%] | cells visible on brightfield clearly distinguishable both on radioluminescence and fluorescence images ([4]; 217/245 cells) [%] | correlation (r) of RFP fluorescence intensity with FHBG radioluminescence intensity ([4]; transduced HeLa cells) | radioluminescence signal in wild-type HeLa cells [5] | affinity for mammalian thymidine kinase (TK) enzymes [6] | affinity for HSV1-TK [7] |
| --- | --- | --- | --- | --- | --- | --- | --- | --- | --- | --- | --- | --- | --- | --- | --- |
| OC[C@H]1OC(O)[C@H]([18F])[C@@H](O)[C@@H]1O (stereo partly drawn) [FDG, ^18F-fluorodeoxyglucose] | good colocalization | varied significantly from cell to cell | 0.74 | fast decrease in cell radioactivity | decline in cell radioactivity | approximately 3 hours | linear increase in radioactivity, followed by a plateau and a slow decrease after 3 hours | Large variations | – | – | – | – | – | – | – |
| Nc1nc2c(ncn2CCC(CO)C[18F])c(=O)[nH]1 (stereo not drawn) [FHBG, 9-(4-[^18F]-fluoro-3-hydroxy-methylbutyl) guanine] | – | – | – | – | – | – | – | – | focal radiotracer uptake | 9 | 88 | 0.34 | no measurable radioluminescence signal | low affinity | high affinity |
